Assay results as given in patent US8669249B2, “Poly (ADP-ribose) polymerase (PARP) inhibitors” (Takeda Pharmaceutical Company Limited, priority 2009, dated 2014).

What was measured:
PARP = target: T1, PARP (Homo sapiens, UniProt P09874); experiment: PARP ELISA (ELISA-based colorimetric PARP/Apoptosis Assay kit, Trevigen); type: biochemical; details: pIC50=-log10 IC50, IC50 in mol/L; inhibition of PARP catalytic activity
T1 construct: purchased Trevigen 4684-096-K HT (kit); 4684-096-01 (PARP enzyme)
Protocol: Inhibition Constant (IC50) from PARP ELISA
After 10 minutes of catalysis the reaction is quenched by solvent aspiration followed by irrigation of the assay wells 4 times with phosphate buffered saline (PBS) containing 0.1% t-Octylphenoxypolyethoxyethanol (Triton® X-100). Mouse Anti-poly ADP ribose (PAR) monoclonal antibody, goat antimouse immunoglobulin G (IgG)-horse radish peroxidase (HRP) conjugate and HRP substrate are added according to the manufacture's specifications to generate a colorimetric signal proportional to PARP catalytic activity.

[1] = target: T2, catalytic domain of Human PARP (Homo sapiens, UniProt P09874); experiment: Biacore surface plasmon resonance affinity assay; type: binding; details: pKD=-log10 KD, KD in mol/L; Biacore T100, 25° C.; read-out: pKD (converted)
T2 construct: The catalytic domain of Human PARP was cloned and prepared; made in house
Summary of the method: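 Binding at 25° C on Biacore T100: 1 min compound association then 5 min dissociation (50 μL/min) over immobilized PARP catalytic domain, buffer HBS-P plus 1% DMSO, 0.5 mM TCEP, 5 mM MgCl2, 2-fold dilution series. KD derived as koff/kon from fitted association and dissociation phases.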

T2 sequence (P09874 788-1014 limits assumed): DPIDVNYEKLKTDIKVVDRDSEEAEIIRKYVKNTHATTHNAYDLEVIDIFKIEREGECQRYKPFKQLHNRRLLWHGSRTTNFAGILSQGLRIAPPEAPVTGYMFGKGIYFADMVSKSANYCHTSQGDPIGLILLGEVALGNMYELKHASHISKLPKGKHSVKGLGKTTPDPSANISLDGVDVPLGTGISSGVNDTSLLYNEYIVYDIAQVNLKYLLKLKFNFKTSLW
T1 sequence (P09874 whole entry): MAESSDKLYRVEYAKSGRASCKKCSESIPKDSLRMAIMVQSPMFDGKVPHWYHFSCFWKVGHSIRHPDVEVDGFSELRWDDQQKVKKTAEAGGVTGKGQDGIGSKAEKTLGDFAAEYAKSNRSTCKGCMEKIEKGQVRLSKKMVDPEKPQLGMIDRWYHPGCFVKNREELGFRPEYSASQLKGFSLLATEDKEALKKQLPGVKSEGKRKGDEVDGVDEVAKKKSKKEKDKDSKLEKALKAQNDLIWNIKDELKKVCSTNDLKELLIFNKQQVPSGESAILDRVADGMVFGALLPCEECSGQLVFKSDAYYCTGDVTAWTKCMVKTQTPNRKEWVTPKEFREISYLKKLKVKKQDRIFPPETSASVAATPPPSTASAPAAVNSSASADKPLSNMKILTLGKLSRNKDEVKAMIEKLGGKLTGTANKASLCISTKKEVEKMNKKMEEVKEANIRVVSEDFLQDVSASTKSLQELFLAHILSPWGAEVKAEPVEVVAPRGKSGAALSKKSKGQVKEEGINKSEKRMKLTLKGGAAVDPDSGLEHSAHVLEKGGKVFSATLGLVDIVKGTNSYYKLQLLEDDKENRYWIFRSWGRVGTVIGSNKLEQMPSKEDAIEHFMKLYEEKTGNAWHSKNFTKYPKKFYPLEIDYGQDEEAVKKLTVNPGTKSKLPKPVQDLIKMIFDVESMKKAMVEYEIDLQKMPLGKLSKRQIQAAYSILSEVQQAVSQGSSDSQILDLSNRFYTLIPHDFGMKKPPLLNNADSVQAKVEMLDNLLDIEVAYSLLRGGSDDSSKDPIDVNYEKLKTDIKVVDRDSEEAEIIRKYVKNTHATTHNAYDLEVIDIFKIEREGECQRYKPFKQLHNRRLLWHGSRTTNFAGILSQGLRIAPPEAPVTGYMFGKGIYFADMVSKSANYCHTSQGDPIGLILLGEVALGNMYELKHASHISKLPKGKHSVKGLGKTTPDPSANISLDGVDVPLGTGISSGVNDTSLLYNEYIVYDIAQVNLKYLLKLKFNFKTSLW

| SMILES | IC50 (PARP) | Kd [1] |
| --- | --- | --- |
| CC1Oc2c(Cl)cc(CN3CCC(c4ccc(Cl)cc4)CC3)cc2NC1=O (centres unmarked) [Compound 165, 8-Chloro-6-((4-(4-chlorophenyl)piperidin-1-yl)methyl)-2-methyl-2H-benzo[b][1,4]oxazin-3(4H)-one] | ≥ 126 nM |  |
| CC1Oc2cc(CN3CC=C(c4ccc(Cl)cc4)CC3)ccc2NC1=O (centres unmarked) [Compound 199, 7-((4-(4-Chlorophenyl)-5,6-dihydropyridin-1(2H)-yl)methyl)-2-methyl-2H-benzo[b][1,4]oxazin-3(4H)-one] |  | ≥ 100000 nM |
| CC1Oc2cc(CN3CCC(c4ccc(Cl)cc4)CC3)ccc2NC1=O (centres unmarked) [Compound 200, 7-((4-(4-Chlorophenyl)piperidin-1-yl)methyl)-2-methyl-2H-benzo[b][1,4]oxazin-3(4H)-one] |  | 12600 to 79400 nM |
| CC1Oc2cc(CN3CC=C(c4ccc(F)cc4)CC3)ccc2NC1=O (centres unmarked) [Compound 201, 7-((4-(4-Fluorophenyl)-5,6-dihydropyridin-1(2H)-yl)methyl)-2-methyl-2H-benzo[b][1,4]oxazin-3(4H)-one] |  | ≥ 100000 nM |
| CC1Oc2cc(CN3CCN(c4ccncc4)CC3)ccc2NC1=O (centres unmarked) [Compound 202, 2-Methyl-7-((4-(pyridin-4-yl)piperazin-1-yl)methyl)-2H-benzo[b][1,4]oxazin-3(4H)-one] |  | ≥ 100000 nM |
| CC1Oc2cc(CN3CCC(c4nc5ccccc5[nH]4)CC3)ccc2NC1=O (centres unmarked) [Compound 203, 7-((4-(1H-Benzo[d]imidazol-2-yl)piperidin-1-yl)methyl)-2-methyl-2H-benzo[b][1,4]oxazin-3(4H)-one] |  | ≥ 100000 nM |
| CC1Oc2cc(CN3CCC(c4ccccc4N)CC3)ccc2NC1=O (centres unmarked) [Compound 204, 7-((4-(2-aminophenyl)piperidin-1-yl)methyl)-2-methyl-2H-benzo[b][1,4]oxazin-3(4H)-one] |  | 12600 to 79400 nM |
| CC1Oc2cc(CN3CCN(c4ccccc4O)CC3)ccc2NC1=O (centres unmarked) [Compound 209, 7-((4-(2-Hydroxyphenyl)piperazin-1-yl)methyl)-2-methyl-2H-benzo[b][1,4]oxazin-3(4H)-one] |  | 12600 to 79400 nM |
| CC1Oc2cc(CN3CCC(c4ccc(C(=O)O)cc4)CC3)ccc2NC1=O (centres unmarked) [Compound 210, 4-(1-((2-Methyl-3-oxo-3,4-dihydro-2H-benzo[b][1,4]oxazin-7-yl)methyl)piperidin-4-yl)benzoic acid] |  | 12600 to 79400 nM |
| CC1Oc2ccc(CN3CCC(c4ccccc4N)CC3)cc2NC1=O (centres unmarked) [Compound 211, 6-((4-(2-Aminophenyl)piperidin-1-yl)methyl)-2-methyl-2H-benzo[b][1,4]oxazin-3(4H)-one] |  | ≥ 100000 nM |
| COC(=O)c1cccc(C2CCN(Cc3ccc4c(c3)NC(=O)C(C)O4)CC2)c1 (centres unmarked) [Compound 212, Methyl 3-(1-((2-methyl-3-oxo-3,4-dihydro-2H-benzo[b][1,4]oxazin-6-yl)methyl)piperidin-4-yl)benzoate] |  | ≥ 100000 nM |
| CC1Oc2ccc(CN3CCC(c4cccc(C(=O)O)c4)CC3)cc2NC1=O (centres unmarked) [Compound 215, 3-(1-((2-Methyl-3-oxo-3,4-dihydro-2H-benzo[b][1,4]oxazin-6-yl)methyl)piperidin-4-yl)benzoic acid] |  | ≥ 100000 nM |
| CC1Oc2ccc(CN3CCC(c4ccc(C(=O)O)cc4)CC3)cc2NC1=O (centres unmarked) [Compound 216, 4-(1-((2-Methyl-3-oxo-3,4-dihydro-2H-benzo[b][1,4]oxazin-6-yl)methyl)piperidin-4-yl)benzoic acid] |  | 1260 to 10000 nM |
| CC1Oc2ccc(CN3CCN(c4cccc(C(F)(F)F)c4)CC3)cc2NC1=O (centres unmarked) [Compound 221, 2-Methyl-6-((4-(3-(trifluoromethyl)phenyl)piperazin-1-yl)methyl)-2H-benzo[b][1,4]oxazin-3(4H)-one] |  | 1260 to 10000 nM |
| CC1Oc2ccc(CN3Cc4ccc(F)cc4C3)cc2NC1=O (centres unmarked) [Compound 241, 6-((5-Fluoroisoindolin-2-yl)methyl)-2-methyl-2H-benzo[b][1,4]oxazin-3(4H)-one] |  | ≤ 10 nM |
| CC(=O)Nc1ccc2c(c1)CN(Cc1ccc3c(c1)NC(=O)C(C)O3)C2 (centres unmarked) [Compound 242, N-(2-((2-Methyl-3-oxo-3,4-dihydro-2H-benzo[b][1,4]oxazin-6-yl)methyl)isoindolin-5-yl)acetamide] |  | 1260 to 10000 nM |
| CC(=O)Nc1ccc(N2CCN(Cc3ccc4c(c3)NC(=O)C(C)O4)CC2)cc1 (centres unmarked) [Compound 245, N-(4-(4-((2-Methyl-3-oxo-3,4-dihydro-2H-benzo[b][1,4]oxazin-6-yl)methyl)piperazin-1-yl)phenyl)acetamide] | ≥ 126 nM |  |
| CCC(=O)Nc1ccc(N2CCN(Cc3ccc4c(c3)NC(=O)C(C)O4)CC2)cc1 (centres unmarked) [Compound 246, N-(4-(4-((2-Methyl-3-oxo-3,4-dihydro-2H-benzo[b][1,4]oxazin-6-yl)methyl)piperazin-1-yl)phenyl)propionamide] | ≥ 126 nM |  |

| SMILES | IC50 (PARP) | Kd [1] |
| --- | --- | --- |
| CC1Oc2ccc(CN3CCN(c4ccc(NC(=O)C5CC5)cc4)CC3)cc2NC1=O (centres unmarked) [Compound 247, N-(4-(4-((2-methyl-3-oxo-3,4-dihydro-2H-benzo[b][1,4]oxazin-6-yl)methyl)piperazin-1-yl)phenyl)cyclopropanecarboxamide] | ≥ 126 nM |  |
| CC1Oc2ccc(CN3CCN(c4ccc(NC(=O)c5ccccc5)cc4)CC3)cc2NC1=O (centres unmarked) [Compound 248, N-(4-(4-((2-Methyl-3-oxo-3,4-dihydro-2H-benzo[b][1,4]oxazin-6-yl)methyl)piperazin-1-yl)phenyl)benzamide] | ≥ 126 nM |  |
| CC1Oc2c(Cl)cc(CN3CCN(c4ccc(C(=O)O)cc4)CC3)cc2NC1=O (centres unmarked) [Compound 307, 4-(4-((8-Chloro-2-methyl-3-oxo-3,4-dihydro-2H-benzo[b][1,4]oxazin-6-yl)methyl)piperazin-1-yl)benzoic acid] | > 200 nM |  |
| CC(C)NC(=O)c1ccc(N2CCN(Cc3cc(Cl)c4c(c3)NC(=O)C(C)O4)CC2)cc1 (centres unmarked) [Compound 310, 4-(4-((8-Chloro-2-methyl-3-oxo-3,4-dihydro-2H-benzo[b][1,4]oxazin-6-yl)methyl)piperazin-1-yl)-N-isopropylbenzamide] | 31.6 nM |  |
| CC1Oc2c(Cl)cc(CN3CCN(c4ccc(C(=O)NC5CC5)cc4)CC3)cc2NC1=O (centres unmarked) [Compound 311, 4-(4-((8-Chloro-2-methyl-3-oxo-3,4-dihydro-2H-benzo[b][1,4]oxazin-6-yl)methyl)piperazin-1-yl)-N-cyclopropylbenzamide] | 39.8 nM |  |
| CCOC(=O)c1ccc(N2CCN(Cc3cc(F)c4c(c3)NC(=O)C(C)O4)CC2)nc1 (centres unmarked) [Compound 312, Ethyl 6-(4-((8-fluoro-2-methyl-3-oxo-3,4-dihydro-2H-benzo[b][1,4]oxazin-6-yl)methyl)piperazin-1-yl)nicotinate] | > 200 nM |  |
| CC1Oc2c(F)cc(CN3CCN(c4ccc(C(=O)O)cn4)CC3)cc2NC1=O (centres unmarked) [Compound 313, 6-(4-((8-Fluoro-2-methyl-3-oxo-3,4-dihydro-2H-benzo[b][1,4]oxazin-6-yl)methyl)piperazin-1-yl)nicotinic acid] | > 200 nM |  |
| CCNC(=O)c1ccc(N2CCN(Cc3cc(F)c4c(c3)NC(=O)C(C)O4)CC2)nc1 (centres unmarked) [Compound 315, N-Ethyl-6-(4-((8-fluoro-2-methyl-3-oxo-3,4-dihydro-2H-benzo[b][1,4]oxazin-6-yl)methyl)piperazin-1-yl)nicotinamide] | 50.1 nM |  |
| CC(C)NC(=O)c1ccc(N2CCN(Cc3cc(F)c4c(c3)NC(=O)C(C)O4)CC2)nc1 (centres unmarked) [Compound 316, 6-(4-((8-Fluoro-2-methyl-3-oxo-3,4-dihydro-2H-benzo[b][1,4]oxazin-6-yl)methyl)piperazin-1-yl)-N-isopropylnicotinamide] | 100 nM |  |
| CC1Oc2c(F)cc(CN3CCN(c4ccc(C(=O)NC5CC5)cn4)CC3)cc2NC1=O (centres unmarked) [Compound 317, N-Cyclopropyl-6-(4-((8-fluoro-2-methyl-3-oxo-3,4-dihydro-2H-benzo[b][1,4]oxazin-6-yl)methyl)piperazin-1-yl)nicotinamide] | 50.1 nM |  |
| Cc1cc2c(cc1CN1CCC(c3ccc(Cl)cc3)CC1)NC(=O)C(C)O2 (centres unmarked) [Compound 322, 6-((4-(4-Chlorophenyl)piperidin-1-yl)methyl)-2,7-dimethyl-2H-benzo[b][1,4]oxazin-3(4H)-one] | > 200 nM |  |
| Cc1c(CN2CCN(c3ccc(Cl)cc3)CC2)ccc2c1NC(=O)C(C)O2 (centres unmarked) [Compound 325, 6-((4-(4-Chlorophenyl)piperazin-1-yl)methyl)-2,5-dimethyl-2H-benzo[b][1,4]oxazin-3(4H)-one] | > 200 nM |  |
| Cc1c(CN2CC=C(c3ccc(Cl)cc3)CC2)ccc2c1NC(=O)C(C)O2 (centres unmarked) [Compound 326, 6-((4-(4-Chlorophenyl)-5,6-dihydropyridin-1(2H)-yl)methyl)-2,5-dimethyl-2H-benzo[b][1,4]oxazin-3(4H)-one] | > 200 nM |  |
| Cc1c(CN2CCC(c3ccc(Cl)cc3)CC2)ccc2c1NC(=O)C(C)O2 (centres unmarked) [Compound 327, 6-((4-(4-Chlorophenyl)piperidin-1-yl)methyl)-2,5-dimethyl-2H-benzo[b][1,4]oxazin-3(4H)-one] | > 200 nM |  |
| CC1Oc2cc(F)c(CN3CCN(c4ccc(Cl)cc4)CC3)cc2NC1=O (centres unmarked) [Compound 330, 6-((4-(4-Chlorophenyl)piperazin-1-yl)methyl)-7-fluoro-2-methyl-2H-benzo[b][1,4]oxazin-3(4H)-one] | > 200 nM |  |
| CC1Oc2cc(F)c(CN3CCC(c4ccc(Cl)cc4)CC3)cc2NC1=O (centres unmarked) [Compound 332, 6-((4-(4-Chlorophenyl)piperidin-1-yl)methyl)-7-fluoro-2-methyl-2H-benzo[b][1,4]oxazin-3(4H)-one] | > 200 nM |  |
| CCOC(=O)c1ccc(N2CCN(Cc3cc4c(cc3F)OC(C)C(=O)N4)CC2)cc1 (centres unmarked) [Compound 333, Ethyl 4-(4-((7-fluoro-2-methyl-3-oxo-3,4-dihydro-2H-benzo[b][1,4]oxazin-6-yl)methyl)piperazin-1-yl)benzoate] | > 200 nM |  |
